Some test systems named below: A549 NSCLC; HCT-15 colon; HOP-62 NSCLC; MALME-3M melanoma; MCF7 breast; OVCAR-8 ovarian; SK-OV-3 ovarian; SNB-19 CNS; SW-620 colon; UO-31 renal.
What all share (test): inhibition of tumour cell growth, NCI panel, 48 h

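Five concentrations, 48 hours, 96-well plates. Abbreviation: GI50, concentration required for 50% inhibition of growth. Definition used: TGI = concentration required for complete inhibition of growth.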

The results in this text go back to PubChem BioAssay (NCI).

With `COc1cccc(-c2cc(NCc3ccc4c(c3)OCO4)nc(N)n2)c1`, the GI50 in the assay on A549 NSCLC was 0.057 µM; in the assay with HCT-15 colon it was 0.0533 µM; with HOP-62 NSCLC it was 0.362 µM; with MALME-3M melanoma, 0.112 µM; with MCF7 breast, 0.0765 µM; with OVCAR-8 ovarian it was 0.123 µM. The GI50 in the assay on SK-OV-3 ovarian was 0.0526 µM; in the assay with SNB-19 CNS, 0.143 µM; in the assay with SW-620 colon, 0.0422 µM; with UO-31 renal, 0.104 µM. For the same compound, the TGI came to 14.9 µM in the assay on A549 NSCLC; 13.9 µM with HCT-15 colon; 17.4 µM in the assay with HOP-62 NSCLC; 26.3 µM in the assay with MALME-3M melanoma; 13.9 µM in the assay on MCF7 breast; 5.2 µM with OVCAR-8 ovarian. The TGI came to 0.583 µM in the assay on SK-OV-3 ovarian, 45.4 µM in the assay on SNB-19 CNS, 16.5 µM with SW-620 colon and 17 µM with UO-31 renal.
On to `O=C(CN/C=C\C(=O)c1cc(Cl)ccc1Cl)c1ccccc1`, for which the GI50 in the assay with A549 NSCLC was 67 µM; in the assay with HCT-15 colon, 18.3 µM; with HOP-62 NSCLC it was 34.5 µM; with MALME-3M melanoma, 25.1 µM; in the assay on MCF7 breast, 22.7 µM; in the assay on OVCAR-8 ovarian it was 26.4 µM. The GI50 in the assay on SK-OV-3 ovarian was 47.1 µM; with SNB-19 CNS, 47.4 µM; with SW-620 colon, 32 µM; in the assay with UO-31 renal, 34.4 µM. For the same compound, the TGI with A549 NSCLC was above 100 µM; in the assay with HCT-15 colon, 37.6 µM; in the assay with HOP-62 NSCLC it was above 100 µM; in the assay with MALME-3M melanoma it was 78.3 µM; in the assay with MCF7 breast it was 51.9 µM; with OVCAR-8 ovarian, 71.4 µM. The TGI with SK-OV-3 ovarian, in the assay with SNB-19 CNS, with SW-620 colon and in the assay with UO-31 renal was above 100 µM each time.
Regarding `COc1cc2c(cc1C)NC(=O)/C2=C/c1c(C)nc2sc(C)cn12`, the GI50 in the assay on A549 NSCLC was 60.8 µM; in the assay on HCT-15 colon it was above 100 µM; in the assay with HOP-62 NSCLC it was above 100 µM; with MALME-3M melanoma, 60.1 µM; in the assay on MCF7 breast, 64.1 µM; in the assay with OVCAR-8 ovarian it was above 100 µM. Also, the GI50 in the assay with SK-OV-3 ovarian was above 100 µM; in the assay on SNB-19 CNS, above 100 µM; in the assay on SW-620 colon, 63 µM; in the assay with UO-31 renal, 86.6 µM. For the same compound, the TGI in the assay on A549 NSCLC, in the assay with HCT-15 colon, in the assay with HOP-62 NSCLC, with MALME-3M melanoma, with MCF7 breast and in the assay with OVCAR-8 ovarian was above 100 µM throughout. The TGI in the assay on SK-OV-3 ovarian, with SNB-19 CNS, in the assay on SW-620 colon and with UO-31 renal was above 100 µM each time.
`COc1ccc2c(c1)N(CCO)C1=C(C(=O)OC1)C2c1cccc(Br)c1` (centres undefined): the GI50 in the assay on A549 NSCLC was 0.113 µM; with HCT-15 colon it was 0.0659 µM; with HOP-62 NSCLC it was 0.132 µM; in the assay with MALME-3M melanoma, 0.0536 µM; in the assay with MCF7 breast, 0.0391 µM; in the assay with OVCAR-8 ovarian, 0.14 µM. The GI50 is 0.0913 µM in the assay on SK-OV-3 ovarian, 0.141 µM in the assay with SNB-19 CNS, 0.046 µM with SW-620 colon and 0.0776 µM with UO-31 renal. The TGI in the assay with A549 NSCLC was 19.6 µM; with HCT-15 colon it was above 100 µM; with HOP-62 NSCLC, above 76.3 µM; with MALME-3M melanoma, 85.7 µM; in the assay with MCF7 breast, above 100 µM; with OVCAR-8 ovarian, 13.9 µM. Moreover, the TGI with SK-OV-3 ovarian was 19 µM; with SNB-19 CNS, above 100 µM; with SW-620 colon, above 100 µM; in the assay with UO-31 renal, above 85.3 µM.
On to `NS(=O)(=O)c1ccc(NCc2cnc3ccccc3c2)cc1`, for which the TGI with A549 NSCLC, with HCT-15 colon, with HOP-62 NSCLC, in the assay on MALME-3M melanoma, in the assay with MCF7 breast and with OVCAR-8 ovarian was above 100 µM in each case. For the same compound, the TGI in the assay on SK-OV-3 ovarian, in the assay with SNB-19 CNS, in the assay with SW-620 colon and in the assay on UO-31 renal was above 100 µM throughout.
For `O=C(O)C#Cc1ccc([N+](=O)[O-])cc1`, the TGI in the assay with A549 NSCLC, with HCT-15 colon, in the assay on HOP-62 NSCLC, in the assay with MALME-3M melanoma, with MCF7 breast and with OVCAR-8 ovarian was above 100 µM each time. Moreover, the TGI in the assay on SK-OV-3 ovarian, in the assay on SNB-19 CNS, in the assay with SW-620 colon and in the assay on UO-31 renal was above 100 µM throughout.
Take `O=C1[C@H](c2ccccc2)C2c3ccccc3CCN12` (some centres undefined): the GI50 in the assay on A549 NSCLC, with HCT-15 colon, in the assay with HOP-62 NSCLC, with MALME-3M melanoma, with MCF7 breast and in the assay with OVCAR-8 ovarian was above 100 µM in each case. Besides, the GI50 in the assay with SK-OV-3 ovarian, in the assay on SNB-19 CNS and in the assay with SW-620 colon was above 100 µM throughout. Moreover, the TGI in the assay with A549 NSCLC, in the assay on HCT-15 colon, in the assay on HOP-62 NSCLC, in the assay on MALME-3M melanoma, in the assay with MCF7 breast and with OVCAR-8 ovarian was above 100 µM throughout. In addition, the TGI with SK-OV-3 ovarian, in the assay with SNB-19 CNS, in the assay with SW-620 colon and with UO-31 renal was above 100 µM each time.
Turning to `Cc1cc(NC(=O)C(=O)Cc2nc3ccccc3s2)ccc1Cl`, the TGI in the assay on A549 NSCLC, with HCT-15 colon, with HOP-62 NSCLC, in the assay with MALME-3M melanoma, in the assay with MCF7 breast and in the assay on OVCAR-8 ovarian was above 100 µM throughout. Besides, the TGI in the assay with SK-OV-3 ovarian, in the assay with SNB-19 CNS, in the assay with SW-620 colon and in the assay with UO-31 renal was above 100 µM in each case.
In the case of `OCCCNC(=S)Nc1ccc(-c2nc3ccccc3s2)cc1`, the GI50 in the assay with A549 NSCLC is 33.7 µM; in the assay on HCT-15 colon, 16.7 µM; with HOP-62 NSCLC it was 31.8 µM; in the assay with MALME-3M melanoma, 19.3 µM; with MCF7 breast it was 32.5 µM; with OVCAR-8 ovarian, 33.7 µM. Further, the GI50 in the assay on SK-OV-3 ovarian was 63.7 µM; with SNB-19 CNS, 32.2 µM; in the assay on SW-620 colon, 47.7 µM; in the assay on UO-31 renal, 12 µM. Besides, the TGI in the assay with A549 NSCLC is above 100 µM; in the assay with HCT-15 colon, 39.8 µM; in the assay on HOP-62 NSCLC, above 100 µM; in the assay with MALME-3M melanoma, 52.7 µM; in the assay with MCF7 breast, above 100 µM; in the assay on OVCAR-8 ovarian, 91.9 µM. In addition, the TGI in the assay with SK-OV-3 ovarian is above 100 µM; with SNB-19 CNS it was above 100 µM; in the assay on SW-620 colon it was above 100 µM; with UO-31 renal, 60.7 µM.
